Data: US20170071967A1, “IMMUNOGENIC LIPOSOMAL FORMULATION” (GlaxoSmithKline Biologicals, SA, priority 2014, published 2017)

Tested on: rabbits
Experiment: Rabbit pyrogenicity test (surrogate measure of incorporation into liposomes)
Assay type: in vivo
Settings: free (non-liposomal) CRX-601
Method: The tests were performed at Pacific Biolabs (Hercules, Calif.) as per their SOP 16E-02.

CCCCCCCCCCC[C@H](CC(=O)N[C@H]1[C@H](OC[C@H](NC(=O)C[C@@H](CCCCCCCCCCC)OCCCCCCCCCC)C(=O)O)O[C@H](CO)[C@@H](OP(=O)(O)O)[C@@H]1OC(=O)C[C@@H](CCCCCCCCCCC)OCCCCCCCCCC)OCCCCCCCCCC [CRX-601]
max non-pyrogenic dose: 0.0025 µg/kg
